From article PMC5561102, “Fusion protein analysis reveals the precise regulation between Hsp70 and Hsp100 during protein disaggregation” (Scientific Reports, 2017)

Key:
Assay in all cases: UV difference spectrum after size exclusion chromatography
Details in all cases: 3 mM ATP, 55 °C 60 min incubation, pH 7.5, 5 mM MgCl2; binding stoichiometry, not an affinity
TDnaK [1] = molecular target: T1, TDnaK (Thermus thermophilus, UniProt Q56235)
T1 construct: gene dnaK; full length, untagged (plasmid pMDK6), expressed in E. coli; C-terminus Asp615

TDnaK [2] = molecular target: T2, TDnaK (Thermus thermophilus, UniProt Q56235, T195A)
T2 construct: gene dnaK; full length, untagged (plasmid pMDK6), expressed in E. coli; C-terminus Asp615

TDnaK [3] = molecular target: T3, TDnaK (Thermus thermophilus, UniProt Q56235, K69A)
T3 construct: gene dnaK; full length, untagged (plasmid pMDK6), expressed in E. coli; C-terminus Asp615
T3 sequence (Q56235 whole entry K69A): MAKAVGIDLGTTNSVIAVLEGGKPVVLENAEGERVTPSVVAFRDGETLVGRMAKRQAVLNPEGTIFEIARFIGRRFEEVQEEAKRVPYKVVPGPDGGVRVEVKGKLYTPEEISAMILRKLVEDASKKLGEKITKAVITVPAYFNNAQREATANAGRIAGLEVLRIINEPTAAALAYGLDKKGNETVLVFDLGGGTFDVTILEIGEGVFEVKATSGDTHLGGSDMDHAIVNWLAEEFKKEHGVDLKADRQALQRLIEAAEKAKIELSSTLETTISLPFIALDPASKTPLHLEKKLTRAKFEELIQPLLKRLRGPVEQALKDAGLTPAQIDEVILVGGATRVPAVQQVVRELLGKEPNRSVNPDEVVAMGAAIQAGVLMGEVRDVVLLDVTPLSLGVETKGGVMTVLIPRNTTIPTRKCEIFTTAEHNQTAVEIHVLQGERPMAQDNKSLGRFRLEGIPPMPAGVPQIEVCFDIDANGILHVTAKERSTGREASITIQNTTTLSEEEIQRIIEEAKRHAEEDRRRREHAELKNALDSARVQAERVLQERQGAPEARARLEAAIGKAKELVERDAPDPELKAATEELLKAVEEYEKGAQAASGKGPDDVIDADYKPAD

T2 sequence (Q56235 whole entry T195A): as the sequence (Q56235 whole entry K69A) above, with A69K, T195A counted along it
T1 sequence (Q56235 whole entry): as the sequence (Q56235 whole entry K69A) above, with A69K counted along it

With `Nc1ncnc2c1ncn2[C@@H]1O[C@H](COP(=O)(O)OP(=O)(O)OP(=O)(O)O)[C@@H](O)[C@H]1O` [ATP] the “bound ATP per TDnaK” value (TDnaK [1]) was 0.70 mol/mol, the “bound ATP per TDnaK” value (TDnaK [2]) was 0.64 mol/mol and the “bound ATP per TDnaK” value (TDnaK [3]) was 0.89 mol/mol.
